Like-named read-outs stand apart in the source and are kept apart here.
What was measured:
CYP2B6 = target: T1, CYP2B6 (Homo sapiens, UniProt P20813); test: Cytochrome P450 inhibition, CYP2B6; format: in vitro ADME; details: probe bupropion, substrate bupropion, human liver microsomes 0.1 mg/mL, read-out: % inhibition of control values, CYP2B6
T1 construct: tissue Eurofins Panlabs Inc. (contract research service) Study Number 100017964; host or cells: human liver microsomes
Method: (§1) All these experiments were performed by a contract research service company, Eurofins Panlabs Inc. (Study Number 100017964). Aqueous solubility (μM) was determined using the shake-flask method by comparing the peak area of the principal peak in a calibration standard (200 μM) containing organic solvent (methanol/water, 60/40, v/v) with the peak area of the corresponding peak in a buffer sample. Metabolic stability study was carried out by incubating compound 4g with human liver microsomes. Metabolic stability which is expressed as percent of the parent compound remaining, was calculated by comparing the peak area of the compound at the time point relative to that at time-0. The half-life (T1/2) was estimated from the slope of the initial linear range of the logarithmic curve of compound remaining (%) vs. time. In the cytochrome P450 inhibition study, human liver microsomes (0.1 mg/mL) were incubated with different substrates and compound 4g for 10 minutes. After the incubation, peak areas corresponding to the metabolite of each substrate were recorded. The percent of control activity was then calculated by comparing the peak area obtained in the presence of compound 4g to that obtained in the absence of compound 4g. Subsequently, the percent inhibition was calculated by subtracting the percent control activity from 100.

[1] = system: NCI/ADR-RES (ovarian cancer); test: NCI-60 five dose screening, NCI/ADR-RES; format: cell-based; details: Homo sapiens, NCI-60 five dose
Method: Four compounds including the parental compound UC-112 were submitted to National Cancer Institute for its NCI-60 cell line screening, initially tested at one concentration (10 μM), and subsequently selected for full five concentration testing following the standard protocols disclosed by NCI [34]. In brief, cells were plated into 96 well micro-titer plates 24 h prior to the treatment of compound solution for 48 h, then the cell viability was read out through absorbance of sulforhodamine B (SRB) staining.

CYP2C8 = target: T2, CYP2C8 (Homo sapiens, UniProt P10632); test: Cytochrome P450 inhibition, CYP2C8; format: in vitro ADME; details: probe paclitaxel, substrate paclitaxel, human liver microsomes 0.1 mg/mL, read-out: % inhibition of control values, CYP2C8
T2 construct: tissue Eurofins Panlabs Inc. (contract research service) Study Number 100017964; host or cells: human liver microsomes
T2 sequence (P10632 whole entry): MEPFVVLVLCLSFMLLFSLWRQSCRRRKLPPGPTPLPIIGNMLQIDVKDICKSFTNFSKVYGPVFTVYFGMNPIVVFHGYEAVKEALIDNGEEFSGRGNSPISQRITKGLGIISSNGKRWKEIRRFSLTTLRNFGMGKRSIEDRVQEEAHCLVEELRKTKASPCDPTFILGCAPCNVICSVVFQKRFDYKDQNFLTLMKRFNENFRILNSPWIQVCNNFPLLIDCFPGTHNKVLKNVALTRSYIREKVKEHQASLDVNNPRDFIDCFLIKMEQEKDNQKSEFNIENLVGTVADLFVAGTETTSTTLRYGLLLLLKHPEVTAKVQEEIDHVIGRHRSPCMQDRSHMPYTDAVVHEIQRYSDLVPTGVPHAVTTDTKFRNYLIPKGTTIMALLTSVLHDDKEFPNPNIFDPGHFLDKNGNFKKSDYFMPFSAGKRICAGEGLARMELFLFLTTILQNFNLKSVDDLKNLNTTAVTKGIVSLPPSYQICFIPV
Method: as §1

CYP3A = test: Cytochrome P450 inhibition, CYP3A; format: in vitro ADME; details: human liver microsomes 0.1 mg/mL
Method: as §1

M14/LCC6MDR1 = test: Cell viability (MTS) anti-proliferative assay, multidrug-resistant M14/LCC6MDR1; format: cell-based, human
Method: (§2) The anti-proliferative effect of UC-112 and its analogs were tested in human melanoma (A375, M14 and M14/LCC6MDR1) and human prostate cancer (PC-3) cell lines. All the cell lines were purchased from ATCC (American Type Culture Collection, Manassas, VA). The cancer cells were cultured using the supplemented cell culture medium as described before at 37°C in a humidified atmosphere containing 5% CO2. 5000 cells in logarithm growing phase were seeded overnight into each well of a 96-well plate. Then the cells were continuously incubated with sequential diluted compound solution (10 nM to 100 μM, 100 μl per well) in cell culture medium.

CYP2C9 = target: T3, CYP2C9 (Homo sapiens, UniProt P11712); test: Cytochrome P450 inhibition, CYP2C9; format: in vitro ADME; details: probe diclofenac, substrate diclofenac, human liver microsomes 0.1 mg/mL, read-out: % inhibition of control values, CYP2C9
T3 construct: tissue Eurofins Panlabs Inc. (contract research service) Study Number 100017964; host or cells: human liver microsomes
T3 sequence (P11712 whole entry): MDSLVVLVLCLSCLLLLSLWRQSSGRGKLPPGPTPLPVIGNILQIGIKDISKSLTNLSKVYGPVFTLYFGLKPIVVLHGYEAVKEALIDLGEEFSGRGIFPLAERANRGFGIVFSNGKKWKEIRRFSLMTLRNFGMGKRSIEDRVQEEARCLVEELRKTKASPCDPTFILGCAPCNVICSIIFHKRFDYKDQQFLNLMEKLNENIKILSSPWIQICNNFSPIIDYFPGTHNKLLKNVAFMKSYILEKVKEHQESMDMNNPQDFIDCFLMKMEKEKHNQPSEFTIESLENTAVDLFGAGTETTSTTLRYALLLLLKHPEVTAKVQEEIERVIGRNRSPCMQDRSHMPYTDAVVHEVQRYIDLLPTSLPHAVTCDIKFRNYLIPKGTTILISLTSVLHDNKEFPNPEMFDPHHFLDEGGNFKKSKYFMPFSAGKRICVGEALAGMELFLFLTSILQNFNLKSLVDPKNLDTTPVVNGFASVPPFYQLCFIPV
Method: as §1

[2] = system: human melanoma A375 xenograft; test: In vivo anti-tumor efficacy, A375 xenograft; parameters: species or system nude mouse
Excerpt: 3 × 10^6 A375 cells were implanted into the left-side dorsal flank of each nude mouse (n = 5) to establish the human melanoma A375 tumor xenograft model as described previously. Compound 4g were first dissolved in DMSO then diluted by 2% methylcellulose PBS buffer. The proportion of DMSO in final solution was kept at lower than 5%. Mice body weight and the size of tumor were closely monitored during the 3 week continuous treatment (i.p. injection, one dose per day, five days per week). At the end point of the treatment, mice were sacrificed after anesthesia. A375 tumor tissues were isolated then freshly lysed on ice to check the targeted protein levels through Western blotting.
A375 tumor tissues collected from the in vivo efficacy study in the above were fixed in formalin phosphate buffer for one week. Then the tissues were processed to get paraffin embedded sections. TUNEL assay was performed using DeadEnd Fluorometric kit (Promega Corporation, Madison, WI) following manufacturer’s instructions. By the end of the experiment, VECTASHIELD Hard Set mounting medium with DAPI (Vector Lab, Inc., Burlingame, CA) was used to mount the tumor slides and stain the nuclei. The final slides were analyzed immediately under a fluorescence microscope (EVOS FL Cell Imaging System, Thermo Fisher Scientific Inc., NY).

M14 = test: Cell viability (MTS) anti-proliferative assay, M14; format: cell-based; details: M14 human melanoma, 48 h treatment, n = 4, read-out: IC50 values ± SEM, M14
Method: as §2

A375 = test: Cell viability (MTS) anti-proliferative assay, A375; format: cell-based; details: A-375, A375 human melanoma, 48 h treatment, n = 4, read-out: IC50 values ± SEM, A375
Method: as §2

CYP2C19 = target: T4, CYP2C19 (Homo sapiens, UniProt P33261); test: Cytochrome P450 inhibition, CYP2C19; format: in vitro ADME; details: probe omeprazole, substrate omeprazole, human liver microsomes 0.1 mg/mL, read-out: % inhibition of control values, CYP2C19
T4 construct: tissue Eurofins Panlabs Inc. (contract research service) Study Number 100017964; host or cells: human liver microsomes
T4 sequence (P33261 whole entry): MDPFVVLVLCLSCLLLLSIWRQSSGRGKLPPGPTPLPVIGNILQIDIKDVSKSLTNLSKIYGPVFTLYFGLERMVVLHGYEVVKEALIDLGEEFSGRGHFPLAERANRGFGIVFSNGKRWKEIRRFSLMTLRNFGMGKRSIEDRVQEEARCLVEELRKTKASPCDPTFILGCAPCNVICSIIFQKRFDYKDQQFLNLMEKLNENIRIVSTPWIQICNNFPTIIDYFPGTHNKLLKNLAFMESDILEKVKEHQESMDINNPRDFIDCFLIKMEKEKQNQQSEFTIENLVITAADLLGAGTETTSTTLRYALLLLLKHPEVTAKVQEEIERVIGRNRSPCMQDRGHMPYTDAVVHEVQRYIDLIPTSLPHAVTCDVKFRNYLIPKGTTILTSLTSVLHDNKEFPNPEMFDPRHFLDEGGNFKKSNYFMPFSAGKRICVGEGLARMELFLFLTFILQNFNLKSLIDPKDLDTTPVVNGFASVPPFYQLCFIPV
Method: as §1

T1 sequence (P20813 whole entry): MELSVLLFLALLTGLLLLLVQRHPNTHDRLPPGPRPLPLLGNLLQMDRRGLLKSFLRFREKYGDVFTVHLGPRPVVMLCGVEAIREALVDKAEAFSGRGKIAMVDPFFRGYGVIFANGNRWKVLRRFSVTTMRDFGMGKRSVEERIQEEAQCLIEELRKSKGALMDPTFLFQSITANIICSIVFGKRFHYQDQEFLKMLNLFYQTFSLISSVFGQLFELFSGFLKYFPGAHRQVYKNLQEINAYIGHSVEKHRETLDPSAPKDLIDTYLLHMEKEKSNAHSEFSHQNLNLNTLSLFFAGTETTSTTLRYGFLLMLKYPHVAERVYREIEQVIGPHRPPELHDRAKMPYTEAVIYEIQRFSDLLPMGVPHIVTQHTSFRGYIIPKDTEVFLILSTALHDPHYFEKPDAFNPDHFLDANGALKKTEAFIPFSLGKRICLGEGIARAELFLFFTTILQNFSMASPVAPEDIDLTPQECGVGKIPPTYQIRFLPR

## CC(C)c1ccc(COCc2cc(CN3CCCC3)c(O)c3ncccc23)cc1 [4g, 5-(((4-isopropylbenzyl)oxy)methyl)-7-(pyrrolidin-1-ylmethyl)quinolin-8-ol]
CYP2B6
  inhibition at 10 min: 21%
[1]
  GI50: 50.1 nM
CYP2C8
  inhibition at 10 min: 21%
CYP3A; probe midazolam, substrate midazolam, read-out: % inhibition of control values, CYP3A (midazolam)
  inhibition at 10 min: 3%
CYP3A; probe testosterone, substrate testosterone, read-out: % inhibition of control values, CYP3A (testosterone)
  inhibition at 10 min: 29%
M14/LCC6MDR1; Homo sapiens, 48 h, multidrug-resistant M14/LCC6MDR1 melanoma, 48 h treatment, MTS, n = 4, read-out: IC50 values ± SEM, M14/LCC6MDR1
  IC50: 1800 ± 400 nM
M14/LCC6MDR1; IC50 on M14/LCC6MDR1 divided by IC50 on parental M14
  Resistance Index: 2.3
CYP2C9
  inhibition at 10 min: 17%
[2]; 20 mg/kg i.p., three weeks, A375 xenograft
  Tumor growth slower than vehicle control group, 20 mg/kg: 53%
[2]; 40 mg/kg i.p., three weeks, A375 xenograft
  Tumor growth slower than vehicle control group, 40 mg/kg: 79%
[2]; 40 mg/kg, formalin-fixed tumor sections
  TUNEL assay of tumor tissues: widely-spread cell apoptosis
[2]; Western blotting of A375 xenograft tumor tissues from treated groups
  Expression levels of survivin and XIAP protein in tumor tissues: decreased
[2]; three weeks i.p. treatment
  Mice body weight: without causing obvious decrease of mice body weight
M14
  IC50: 800 ± 200 nM
A375
  IC50: 900 ± 100 nM
CYP2C19
  inhibition at 10 min: 45%

From PMC4466525, “Design, Synthesis and Structure-Activity Relationship Studies of Novel Survivin Inhibitors with Potent Anti-Proliferative Properties” (PLoS ONE, 2015)
